The structures appear in SMILES notation.

The target of this assay is T1, HDM2 (Homo sapiens, UniProt Q00987).
T1 construct: Thioredoxin (N); made in house; host or cells: E. coli strain BL21(DE3)Rosetta
T1 sequence (Q00987 17-125): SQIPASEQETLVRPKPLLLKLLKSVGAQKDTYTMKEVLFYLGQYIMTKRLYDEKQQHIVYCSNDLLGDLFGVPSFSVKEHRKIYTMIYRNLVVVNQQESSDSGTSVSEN
Briefly: HDM2 FRET assay (inhibition of binding of FITC labeled p53-pocket peptide to HDM2). To be noted: Table 11; read-out: FRET IC50. The procedure, abridged: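 Signal is read as the 520/495 nm emission ratio and converted to percent inhibition; nonlinear sigmoidal regression yields IC50. The assay mixes HDM2 (0.5 nM), FITC-p53 peptide (3 nM) and Tb anti-His antibody (0.25 nM) at 0.1% DMSO.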
In the case of `C[C@H]1CC[C@H](Cn2c(N3CCOC[C@H]3c3ccccc3)nc3nc(-c4noc(=O)[nH]4)nc(N4CCCCC4C4CCC4)c32)CC1` (stereo partly drawn) [Example 11.81, 3-{6-(2-cyclobutylpiperidin-1-yl)-7-[(trans-4-methylcyclohexyl)methyl]-8-[(3R)-3-phenylmorpholin-4-yl]-7H -purin-2-yl}-1,2,4-oxadiazol-5(4H)-one], the IC50 amounted to 483 nM.

Regarding `C[C@H]1CC[C@H](Cn2c(N3CCOC[C@H]3c3ccccc3)nc3nc(-c4noc(=O)[nH]4)nc(N4CCCCC4C4CCC4)c32)CC1` (stereo partly drawn) [Example 11.82, 3-{6-(2-cyclobutylpiperidin-1-yl)-7-[(trans-4-methylcyclohexyl)methyl]-8-[(3R)-3-phenylmorpholin-4-yl]-7H -purin-2-yl}-1,2,4-oxadiazol-5(4H)-one], the IC50 was 6.45 nM.

For `CC(C)C[C@H]1CCCCN1c1nc2nc(-c3noc(=O)[nH]3)nc(N[C@H](C)C3CCC3)c2n1C[C@H]1CC[C@H](C)CC1` [Example 11.83, 3-(6-{[(1R)-1-cyclobutylethyl]amino}-7-[(trans-4-methylcyclohexyl)methyl]-8-[(2R)-2-(2-methylpropyl)piperidin-1-yl]-7H-purin-2-yl)-1,2,4-oxadiazol-5(4H)-one], the IC50 worked out at 11.5 nM.

Turning to `CC(C)C[C@@H]1CCCCN1c1nc2nc(-c3noc(=O)[nH]3)nc(N[C@H](C)C3CCC3)c2n1C[C@H]1CC[C@H](C)CC1` [Example 11.84, 3-(6-{[(1R)-1-cyclobutylethyl]amino}-7-[(trans-4-methylcyclohexyl)methyl]-8-[(2S)-2-(2-methylpropyl)piperidin-1-yl]-7H-purin-2-yl)-1,2,4-oxadiazol-5(4H)-one], the IC50 came out at 3.07 nM.

As to `CC(Nc1nc2nc(-c3noc(=O)[nH]3)nc(N[C@H](C)C3CCC3)c2n1C[C@H]1CC[C@H](C)CC1)c1cncnc1` (stereo partly drawn) [Example 11.85, 3-(6-{[(1R)-1-cyclobutylethyl]amino}-7-[(trans-4-methylcyclohexyl)methyl]-8-[(1-pyrimidin-5-ylethyl)amino]-7H-purin-2-yl)-1,2,4-oxadiazol-5(2H)-one], the half-maximal inhibitory concentration (IC50) came out at 4.97 nM.

On to `Cc1nc(C(C)Nc2nc3nc(-c4noc(=O)[nH]4)nc(N[C@H](C)C4CCC4)c3n2C[C@H]2CC[C@H](C)CC2)cs1` (stereo partly drawn) [Example 11.86, 3-(6-{[(1R)-1-cyclobutylethyl]amino}-7-[(trans-4-methylcyclohexyl)methyl]-8-{[1-(2-methyl-1,3-thiazol-4-yl)ethyl]amino} -7H-purin-2-yl)-1,2,4-oxadiazol-5(2H)-one], for which the IC50 amounted to 3.39 nM.

Take `CC(Nc1nc2nc(-c3noc(=O)[nH]3)nc(N[C@H](C)C3CCC3)c2n1C[C@H]1CC[C@H](C)CC1)c1ccno1` (stereo partly drawn) [Example 11.87, 3-(6-{[(1R)-1-cyclobutylethyl]amino}-8-[(1-isoxazol-5-ylethyl)amino]-7-[(trans-4-methylcyclohexyl)methyl]-7H-purin-2-yl)-1,2,4-oxadiazol-5(2H)-one]: the IC50 is 105 nM.

With `CC(Nc1nc2nc(-c3noc(=O)[nH]3)nc(N[C@H](C)C3CCC3)c2n1C[C@H]1CC[C@H](C)CC1)c1cscn1` (stereo partly drawn) [Example 11.88, 3-(6-{[(1R)-1-cyclobutylethyl]amino}-7-[(trans-4-methylcyclohexyl)methyl]-8-{[1-(1,3-thiazol-4-yl)ethyl]amino}-7H-purin-2-yl)-1,2,4-oxadiazol-5(2H)-one], the IC50 turned out to be 3.83 nM.

As for `CC(Nc1nc2nc(-c3noc(=O)[nH]3)nc(N[C@H](C)C3CCC3)c2n1C[C@H]1CC[C@H](C)CC1)c1ccncn1` (stereo partly drawn) [Example 11.89, 3-(6-{[(1R)-1-cyclobutylethyl]amino}-7-[(trans-4-methylcyclohexyl)methyl]-8-[(1-pyrimidin-4-ylethyl)amino]-7H-purin-2-yl)-1,2,4-oxadiazol-5(2H)-one], the IC50 was 13.8 nM.

The term IC50 denotes the midpoint of a concentration-inhibition curve.

The values above are taken from EP2951180B1, “2,6,7,8 SUBSTITUTED PURINES AS HDM2 INHIBITORS” (Merck Sharp & Dohme Corp., priority 2013, dated 2014).
